# Results: paper PMC2731040 (BMC Clinical Pharmacology, 2009)
# Tests used:
# [1] = test system: nondependent cocaine-experienced subjects; assay: Adverse events and cardiovascular safety monitoring; assay type: in vivo, human
# Experimental: (§1) Heart rate, blood pressure, respiration rate, skin and core temperature were recorded at specific times during the study. During infusions, measures were obtained pre-dose and at 0.17, 0.5, 0.75, 1, 1.5, 2, 2.5, 3, 3.5, 4, 4.25, 4.5, 5, 6, 8, 12, 18, 24, 36, 48, and 72 hours after dosing. The electrocardiogram was monitored continuously during the infusion and for 4 hours after the termination of the intravenous cocaine infusion. EKG tracings were recorded at each data collection point.
# MAO-B = target: T1, MAO-B (Homo sapiens, UniProt P27338); assay type: in vivo; settings: Day 3–4 After Cocaine Preselegiline
# T1 construct: Twelve nondependent cocaine-experienced subjects received deuterium-labeled cocaine-d5 intravenously; from tissue; host or cells: whole body of living human subjects (in vivo); 24-hour urine analysed for PEA
# T1 sequence (P27338 1-520): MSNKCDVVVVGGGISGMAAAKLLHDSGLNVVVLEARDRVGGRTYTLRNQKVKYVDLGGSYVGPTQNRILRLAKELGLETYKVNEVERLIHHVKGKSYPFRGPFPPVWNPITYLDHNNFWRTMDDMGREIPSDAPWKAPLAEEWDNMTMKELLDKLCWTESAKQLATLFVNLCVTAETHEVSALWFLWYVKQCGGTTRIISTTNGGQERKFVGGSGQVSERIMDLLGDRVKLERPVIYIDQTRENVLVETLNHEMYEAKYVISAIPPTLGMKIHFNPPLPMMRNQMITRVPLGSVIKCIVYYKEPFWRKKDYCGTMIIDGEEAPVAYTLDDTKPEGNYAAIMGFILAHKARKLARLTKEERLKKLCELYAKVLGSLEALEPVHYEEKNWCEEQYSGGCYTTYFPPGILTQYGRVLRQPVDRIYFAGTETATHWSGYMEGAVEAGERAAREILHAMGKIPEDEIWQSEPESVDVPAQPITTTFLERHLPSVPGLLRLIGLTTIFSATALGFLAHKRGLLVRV
# Description: (§2) The interactions between MAO-A inhibitors and cocaine administered are largely unexplored. […] Therefore, measurement of dopaminergic and noradrenergic tone may be important in predicting toxic events. We measured dopaminergic tone with the surrogate marker of plasma HVA, the major brain metabolite of dopamine, and serum levels of prolactin, a hormone whose secretion is inhibited by dopamine. The surrogate for noradrenergic tone was urine concentrations of MHPG-S. In order to assess the degree of MAO-A and MAO-B inhibition, we assayed concentrations of a substrate of MAO-B, phenylethylamine (PEA). PEA would be expected to increase with MAO-B inhibition, and concentrations of MHPG-S, which is a metabolite of norepinephrine produced by MAO-A primarily in the brain [20], would be expected to decrease.
# When subjects were in the GCRC, all urine was collected and volumes recorded. Following each cocaine infusion, urine was collected in fractions from 0 to 24, 24 to 48, and 48 to 72 hours (timed from the start of the infusion). Samples were then frozen at -70°C until analyzed. […] A qualitative screen for drugs of abuse was obtained every other day for the entire study period.
# dopaminergic tone = assay: Serum prolactin and plasma HVA (surrogate markers of dopaminergic tone); assay type: in vivo, human; settings: both challenge sessions; change within each session not significant
# Description: as §2
# [2] = test system: nondependent cocaine-experienced subjects; assay: Physiologic measures during cocaine challenge sessions; assay type: in vivo, human; settings: for Systolic Blood Pressure, Peak change: Mean ± SD, 12 subjects
# Experimental: Heart rate, systolic and diastolic blood pressure were measured using a cardiovascular monitor (Dinamap by Critikon, Vital Signs Monitor 1846 SX). Rate pressure product was calculated as the product of systolic blood pressure and heart rate. Respiration rate was measured by counting the number of inhalations per minute. These vital signs were determined with the patient in a supine position for at least 10 minutes.
# as §1
# The time courses of physiologic and subjective data were analyzed by repeated measures analysis of variance (ANOVA). Treatment conditions (Sessions 1 and 2) and observation times (hours post-dose) were considered within-subject factors. Change scores (post-dose minus pre-dose values) were used in most analyses. Raw score were used where indicated. After a significant F test, pairwise comparisons of treatment conditions were performed using the least squares means analysis. Peak effects within a session were determined for each subject and each variable and analyzed using a one-factor repeated measures ANOVA. Effects were considered statistically significant at p = 0.05. Data were adjusted for sphericity using the Huynh-Feldt adjustment factor. Huynh-Feldt-corrected significance values are reported.
# [3] = Session 1: first cocaine infusion, before selegiline
# [4] = Session 2: second cocaine infusion, after one week of selegiline STS
# [5] = both cocaine challenge sessions, p < 0.01
compound,measurement,setting,value
"COC(=O)[C@H]1[C@@H](OC(=O)c2ccccc2)C[C@@H]2CC[C@H]1N2C [Cocaine, cocaine]",Adverse events,"[1]; STS 6 mg/24 hours, cocaine-d5 IV 2.5 mg/kg over 4 hours",One subject vomited
same,Adverse effects of cocaine following selegiline administration,[1]; cocaine infusion after one week of STS,No significant adverse effects
same,Total Amount of PEA Excreted in the 24 Hour Urine Collection,MAO-B,0.003 ± 0.004 mg
same,"Serum prolactin levels after cocaine, change within session",dopaminergic tone,numerically decreased
same,"Core Temperature, Peak Time",[2]; [3],4.5 ± 1.6 Hr Postdose
same,"Core Temperature, Peak change",[2]; [3],0.7 ± 0.2 °C
same,"Diastolic Blood Pressure, Peak Time",[2]; [3],2.8 ± 2.4 Hr Postdose
same,"Diastolic Blood Pressure, Peak change",[2]; [3],10 ± 5 mmHg
same,"Heart Rate, Peak Time",[2]; [3],0.8 ± 0.9 Hr Postdose
same,"Heart Rate, Peak change",[2]; [3],26 ± 10 beats/min
same,"Rate Pressure Product, Peak Time",[2]; [3],1.4 ± 1.5 Hr Postdose
same,"Rate Pressure Product, Peak change",[2]; [3],4224 ± 1638 SBP*HR
same,"Respiration Rate, Peak Time",[2]; [3],0.9 ± 1.3 Hr Postdose
same,"Respiration Rate, Peak change",[2]; [3],3.8 ± 4.0 inhal/min
same,"Skin Temperature, Peak Time",[2]; [3],0.8 ± 0.4 Hr Postdose
same,"Skin Temperature, Peak change",[2]; [3],-5.4 ± 2.7 °C
same,"Systolic Blood Pressure, Peak Time",[2]; [3],2.2 ± 1.9 Hr Postdose
same,"Systolic Blood Pressure, Peak change","[2]; Session 1: first cocaine infusion, day 1, before selegiline",17 ± 8 mmHg
same,"Core Temperature, Peak Time",[2]; [4],4.2 ± 1.9 Hr Postdose
same,"Core Temperature, Peak change",[2]; [4],0.7 ± 0.5 °C
same,"Diastolic Blood Pressure, Peak Time",[2]; [4],2 ± 2 Hr Postdose
same,"Diastolic Blood Pressure, Peak change",[2]; [4],12 ± 6 mmHg
same,"Heart Rate, Peak Time",[2]; [4],0.9 ± 1.7 Hr Postdose
same,"Heart Rate, Peak change",[2]; [4],27 ± 12 beats/min
same,"Rate Pressure Product, Peak Time",[2]; [4],0.9 ± 1.6 Hr Postdose
same,"Rate Pressure Product, Peak change",[2]; [4],4437 ± 2333 SBP*HR
same,"Respiration Rate, Peak Time",[2]; [4],0.4 ± 0.3 Hr Postdose
same,"Respiration Rate, Peak change",[2]; [4],3.8 ± 3.6 inhal/min
same,"Skin Temperature, Peak Time",[2]; [4],1.0 ± 1.2 Hr Postdose
same,"Skin Temperature, Peak change",[2]; [4],-5 ± 3.2 °C
same,"Systolic Blood Pressure, Peak Time",[2]; [4],1.9 ± 1.7 Hr Postdose
same,"Systolic Blood Pressure, Peak change","[2]; Session 2: second cocaine infusion, day 11, after one week of selegiline STS patch 6 mg/24 hours",17 ± 9 mmHg
same,Skin temperature compared to baseline,[2]; [5],decreased significantly
same,"Systolic blood pressure, heart rate, and rate pressure product compared to baseline",[2]; [5],increased significantly
same,"Diastolic blood pressure, respiration rate, and core temperature",[2]; cocaine either alone or with selegiline,did not alter
